Patent US5645852A, “Butyric ester cyto-differtiating agents” (Sloan-Kettering Institute for Cancer Research, priority 1995, dated 1997)

What was measured:
[1] = test system: aberrant blood cells of sickle cell anemia; conditions: in vitro; cited from earlier work
HL-60 = conditions: in vitro; cited from earlier work
[2] = test system: aberrant blood cells of thalassemia; conditions: in vitro; cited from earlier work
HT-29 = conditions: in vitro; cited from earlier work
[3] = intravenous infusion, 500 mg/kg per day; cited from earlier work
[4] = test system: cancer or transformed cells lines; conditions: combinations of sodium butyrate and active Vitamin D forms; cited from earlier work
[5] = plasma, humans and rabbits; cited from earlier work
[6] = test system: 1,2-dimethylhydraxine-induced rat intestine neoplasia; conditions: equivalent intake to tributyrin at 5% of feed; cited from earlier work
[7] = continuous intravenous infusions, 500 mg/kg/day or higher, several days; cited from earlier work
leukemia [8] = conditions: intravenous infusion, 500 mg/kg per day; cited from earlier work
thalassemia = conditions: continuous intravenous infusions, 500 mg/kg/day or higher, several days; cited from earlier work
leukemia [9] = conditions: intravenous infusions 500 mg/kg body weight per day for several days, child with leukemia; cited from earlier work
sickle cell = conditions: continuous intravenous infusions, 500 mg/kg/day or higher, several days; cited from earlier work
[10] = test system: chemically induced colon cancer; conditions: 5% of the feed, mice; cited from earlier work
[11] = set-up: species or system male Sprague Dawley rats; conditions: rat, in vivo
Experimental: Three male Sprague Dawley rats (Harlan Sprague Dawley, Houston, Tex.) weighing approximately 306 g were fasted overnight and gavaged with 1 gm of tributyrin (Sigma catalog #T-5142, 99% pure, 302.4M) directly into the stomach. A fourth rat-was not gavaged. Rats were sacrificed at time zero (without gavage) or 0.5, 2 and 4 hours post gavage. At time of sacrifice, each rat was anesthetized with a mixture of ketamine (87 mg/kg) and rompun (13 mg/kg). A cardiac puncture was performed and approximately 2 mls of blood was withdrawn into a heparinized vacutainer tube. Blood was centrifuged at 2000×g for 7 minutes and plasma was withdrawn and stored frozen until analysis. At the time of analysis, plasma concentration was determined by the method of Remsey and Demigne (1974) using chromatographic methods as described by Boffa et al. (1992).
A single oral dose bolus of 1 gm of tributyrin was administered to rats, and the plasma levels of free butyrate measured over 4 hours.

CCCC(=O)O [butyrate, butyric acid]
concentration giving desirable changes of aberrant blood cells [1]: about 0.05 mM
concentration at which butyrate has differentiation action (HL-60): 0.3 to 5 mM
concentration giving desirable changes of aberrant blood cells [2]: about 0.05 mM
concentration at which butyrate has differentiation action (HT-29): 0.3 to 5 mM

CCCC(=O)[O-].[Na+] [sodium butyrate]
metabolic half-life [3]: about 6 minutes
effect of combination with active Vitamin D forms on differentiation [4]: additive or synergistic effects
half-life [5]: about 6 minutes
promoting or cancer increasing effect [6]: promoting or cancer increasing effect
metabolism of butyrate [7]: apparently rapidly metabolized
clinical response (leukemia [8]): no clinical response
success in treating thalassemia patients (thalassemia): success
remission (leukemia [9]): short-lived remission
success in treating sickle cell patients (sickle cell): success

CCCC(=O)OCC(COC(=O)CCC)OC(=O)CCC [tributyrin, glyceryl tributyrate]
prevention of chemically induced colon cancer [10]: ineffective
promoting or cancer increasing effect [10]: did not produce the promoting or cancer increasing effect
absorption of butyrate [11]: very rapidly absorbed
return of plasma butyrate to baseline [11]: almost back to baseline at 4 hours
half-life of butyrate ([11]; po): about 40 minutes
peak level of butyrates ([11]; po): 0.35 mM
time over 0.10 mM butyrate ([11]; po): about 2 hours
